Patent EP0162330B1, “Use of sterolins and spiroketalins in the production of medicaments for the treatment of psoriasis” (Roecar Holdings (Netherlands Antilles) N.V., priority 1984, dated 1985)
Each block holds one compound with its values, some of them ahead of it.

Legend:
12-lipoxygenase [1] = test: In vitro lipoxygenase inhibition in leucocyte preparations, arachidonic acid products by radio thin-layer chromatography; type: cell-based, human
Protocol: (§1) Washed and resuspended platelets or leucocytes were incubated in one test with a saturated solution of β-sitosterol β-D-glucoside (23,5 mg/10ml ethanol) and in a second test with a 10 times oversaturated solution with addition of 0.25 µCi arachidonic acid for 5 minutes. The test mixtures were then acidified and extracted with ethyl acetate. Separation of the reaction products was performed by radio-thinlayer-chromatography.
(§2) The number of leukocytes in test 1 was 2000 and in test 2, 1600 and the number of platelets in the platelets test 1 was 140 000 and in test 2 it was 240 000.
(§3) After incubation with the test substance a significant inhibition of the lipoxygenase products can be shown when using platelets leading to a near complete synthesis inhibition and accumulation of non-metabolized arachidonic acid. As far as leucocytes are concerned, there is a dosage-dependant inhibitory effect of the lipoxygenase whereby the changes are mainly based on 12-hydroxyeicoscatetraenoic acid (12-HETE) and 12-HPETE while lesser changes are observed for HHT.

12-lipoxygenase [2] = target: T1, 12-lipoxygenase (Homo sapiens, UniProt P18054); test: In vitro lipoxygenase inhibition in platelets, arachidonic acid products by radio thin-layer chromatography; type: cell-based; conditions: 120' saturated solution
T1 construct: endogenous in cells; host or cells: washed human platelets
T1 sequence (P18054 1-663): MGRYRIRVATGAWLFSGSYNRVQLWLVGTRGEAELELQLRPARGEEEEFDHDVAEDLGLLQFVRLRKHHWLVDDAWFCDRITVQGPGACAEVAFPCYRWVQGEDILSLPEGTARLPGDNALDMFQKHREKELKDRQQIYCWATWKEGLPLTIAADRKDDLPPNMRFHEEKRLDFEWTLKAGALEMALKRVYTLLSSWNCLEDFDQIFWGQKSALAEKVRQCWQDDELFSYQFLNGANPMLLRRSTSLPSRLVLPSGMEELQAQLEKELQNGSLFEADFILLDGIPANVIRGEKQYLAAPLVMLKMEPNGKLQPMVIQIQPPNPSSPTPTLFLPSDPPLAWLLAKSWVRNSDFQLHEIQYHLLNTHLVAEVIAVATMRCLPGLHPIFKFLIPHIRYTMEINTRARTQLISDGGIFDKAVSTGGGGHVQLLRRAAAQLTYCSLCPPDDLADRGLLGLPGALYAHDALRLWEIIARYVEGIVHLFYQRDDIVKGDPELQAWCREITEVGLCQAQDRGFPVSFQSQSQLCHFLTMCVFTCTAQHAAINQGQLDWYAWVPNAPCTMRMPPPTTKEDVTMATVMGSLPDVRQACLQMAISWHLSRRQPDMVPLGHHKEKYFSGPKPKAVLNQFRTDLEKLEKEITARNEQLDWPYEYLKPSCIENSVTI
Protocol: as §1, §2, §3

[3] = tested on: antigen-induced SRS-A (leukotriene) mediated bronchoconstriction; test: In vivo antigen-induced SRS-A (leukotriene) mediated bronchoconstriction (method of Anderson et al); set-up: species or system guinea pigs; conditions: n=8
Excerpt: The effect of β-Sitosterol-β-D-glucoside was investigated on antigen-induced SRS-A (leukotriene) mediated bronchoconstriction according to the method of Anderson et al (Br. J. Pharmacol. 78,67-74, 1983). Twenty-eight to thirty-three days after the single ovalbumine dose the guinea pigs were anaesthetised and surgically prepared for intravenous administration of the test compounds and measuring the ventilatory pressure. Prior to the antigen (ovalbumine) challenge the animals were adequately pretreated with indomethacin, pyrilamine and propanolol to eliminate the effect of other interfering mediators released during the anaphylactic reaction. The test substance was administered 1 minute before the ovalbumine challenge.
The vehicle (50% DMSO in water) served as a control. Phenindone was used as the standard reference substance.

[4] = target: T2, 12-lipoxygenase of the platelets (Homo sapiens, UniProt P18054); test: Influence upon lipoxygenase: thrombin-stimulated washed human platelets (method of Schroer et al); type: cell-based; conditions: washed human platelets stimulated with thrombin (0.6 iU/ml)
T2 construct: endogenous in cells; host or cells: washed human platelets
T2 sequence (P18054 1-663): T1 sequence (P18054 1-663)
Protocol: The tests were performed according to the method devised by Schroer et al, Naunyn-Schmiedeberg's Arch. Pharmak. 313, 69 (1980). According to this method washed human platelets are stimulated with thrombin (0.6 iU/ml). Arachidonic acid released from the platelets upon stimulation is transformed by the 12-lipoxygenase of the platelets into 12-hydro-peroxy-eicosatetraenoic acid (12-HPETE).

[5] = 10 mg/kg i.v., 1 minute after challenge

12 HETE 12 HPETE in % (12-lipoxygenase [2]; test 1, platelets (140 000), normal 39.8): 3.8%
12 HETE 12 HPETE in % (12-lipoxygenase [2]; test 2, platelets (240 000), normal 35.0): 11.9%
Compound: CC[C@H](CC[C@@H](C)[C@H]1CC[C@H]2[C@@H]3CC=C4C[C@@H](O[C@@H]5O[C@H](CO)[C@@H](O)[C@H](O)[C@H]5O)CC[C@]4(C)[C@H]3CC[C@]12C)C(C)C [β-Sitosterol- β-D-glucoside, β-sitosterol β-D-glucoside]
12 HETE 12 HPETE in % (12-lipoxygenase [1]; test 1, leukocytes (2000), 30' oversaturated (10 times) solution, normal 50.2): 12.4%
12 HETE 12 HPETE in % (12-lipoxygenase [1]; test 1, leukocytes (2000), 30' saturated solution (23,5 mg/10ml ethanol), normal 50.2): 35.9%
12 HETE 12 HPETE in % (12-lipoxygenase [1]; test 1, leukocytes (2000), 120' saturated solution, normal 50.2): 13.4%
12 HETE 12 HPETE in % (12-lipoxygenase [1]; test 2, leukocytes (1600), 30' oversaturated (10 times) solution, normal 48.0): 22.7%
12 HETE 12 HPETE in % (12-lipoxygenase [1]; test 2, leukocytes (1600), 30' saturated solution, normal 48.0): 37.0%
12 HETE 12 HPETE in % (12-lipoxygenase [1]; test 2, leukocytes (1600), 120' saturated solution, normal 48.0): 2.7%
MEAN CHANGE (AS % OF MAX ±S.E.M.) IN VENTILATION PRESSURE AFTER OVALBUMIN ADMINISTRATION ([3]; 1 mg/kg i.v., 1 minute after challenge): 5.8 ±4.5 % OF MAX
MEAN CHANGE (AS % OF MAX ±S.E.M.) IN VENTILATION PRESSURE AFTER OVALBUMIN ADMINISTRATION [3, 5]: 1.8 ±2.8 % OF MAX
MEAN CHANGE (AS % OF MAX ±S.E.M.) IN VENTILATION PRESSURE AFTER OVALBUMIN ADMINISTRATION ([3]; 10 mg/kg i.v., 2 minutes after challenge): 31.0 ±9.8 % OF MAX

inhibition at 10 µM ([4]; 10 µM/ml): 97%
Compound: CCCCCC#CCC#CCC#CCC#CCCCC(=O)O [ETYA, 5,8,11,14-eicosatetraynoic acid, reference compound]

inhibition ([4]; 5 µM/ml): 13%
inhibition ([4]; 10 µM/ml): 31%
inhibition ([4]; 50 uM/ml): 60%
Compound: Diosgeninglucoside

Compound: O=C1CCN(c2ccccc2)N1 [Phenidone, reference compound]
MEAN CHANGE (AS % OF MAX ±S.E.M.) IN VENTILATION PRESSURE AFTER OVALBUMIN ADMINISTRATION [3, 5]: 3.1 ±1.0 % OF MAX
